Four compounds from ChEMBL document CHEMBL1135269, “Benzoindoloquinolines interact with DNA tetraplexes and inhibit telomerase” (Bioorg Med Chem Lett, 2002) can be followed below.

A value given as a limit tells only on which side of the number the result lay.

Experiment [1] deals with DNA polymerase I, thermostable (Thermus aquaticus, UniProt P19821). The experiment in a line: Tested for inhibitory activity against Taq DNA polymerase.
The target of experiment [2] is Telomerase reverse transcriptase (Homo sapiens, UniProt O14746). The experiment in a line: Tested for inhibitory activity against Telomerase in telomerase repeat amplification protocol (TRAP) assay.
Sequence of Telomerase reverse transcriptase (O14746 whole entry): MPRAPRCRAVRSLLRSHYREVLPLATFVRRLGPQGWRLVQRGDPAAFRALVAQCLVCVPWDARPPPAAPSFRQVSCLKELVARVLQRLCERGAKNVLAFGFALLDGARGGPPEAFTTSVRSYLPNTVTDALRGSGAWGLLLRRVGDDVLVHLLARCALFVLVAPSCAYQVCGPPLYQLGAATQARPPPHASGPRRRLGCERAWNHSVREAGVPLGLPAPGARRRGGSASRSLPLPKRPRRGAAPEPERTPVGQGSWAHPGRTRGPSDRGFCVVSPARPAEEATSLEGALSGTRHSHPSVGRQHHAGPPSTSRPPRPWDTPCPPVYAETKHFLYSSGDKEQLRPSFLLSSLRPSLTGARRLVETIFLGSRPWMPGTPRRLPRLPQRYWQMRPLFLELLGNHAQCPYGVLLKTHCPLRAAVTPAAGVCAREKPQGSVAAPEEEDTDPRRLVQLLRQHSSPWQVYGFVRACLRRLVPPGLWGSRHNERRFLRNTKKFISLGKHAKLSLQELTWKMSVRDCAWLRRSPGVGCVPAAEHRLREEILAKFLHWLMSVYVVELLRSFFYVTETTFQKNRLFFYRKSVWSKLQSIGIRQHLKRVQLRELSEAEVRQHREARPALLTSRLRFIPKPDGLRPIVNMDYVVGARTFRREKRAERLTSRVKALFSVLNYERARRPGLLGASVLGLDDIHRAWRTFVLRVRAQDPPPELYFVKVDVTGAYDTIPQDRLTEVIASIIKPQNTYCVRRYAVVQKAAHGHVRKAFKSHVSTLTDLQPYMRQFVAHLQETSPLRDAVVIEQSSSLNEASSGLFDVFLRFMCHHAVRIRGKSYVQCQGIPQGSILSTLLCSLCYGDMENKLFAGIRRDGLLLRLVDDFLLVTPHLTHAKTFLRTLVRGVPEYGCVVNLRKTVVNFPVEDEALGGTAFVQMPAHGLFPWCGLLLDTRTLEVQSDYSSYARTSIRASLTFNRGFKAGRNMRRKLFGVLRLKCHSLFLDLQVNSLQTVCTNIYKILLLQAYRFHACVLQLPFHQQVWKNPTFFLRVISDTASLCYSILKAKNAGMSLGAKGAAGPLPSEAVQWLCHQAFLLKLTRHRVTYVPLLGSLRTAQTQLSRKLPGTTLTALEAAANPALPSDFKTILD

Sequence of DNA polymerase I, thermostable (P19821 whole entry): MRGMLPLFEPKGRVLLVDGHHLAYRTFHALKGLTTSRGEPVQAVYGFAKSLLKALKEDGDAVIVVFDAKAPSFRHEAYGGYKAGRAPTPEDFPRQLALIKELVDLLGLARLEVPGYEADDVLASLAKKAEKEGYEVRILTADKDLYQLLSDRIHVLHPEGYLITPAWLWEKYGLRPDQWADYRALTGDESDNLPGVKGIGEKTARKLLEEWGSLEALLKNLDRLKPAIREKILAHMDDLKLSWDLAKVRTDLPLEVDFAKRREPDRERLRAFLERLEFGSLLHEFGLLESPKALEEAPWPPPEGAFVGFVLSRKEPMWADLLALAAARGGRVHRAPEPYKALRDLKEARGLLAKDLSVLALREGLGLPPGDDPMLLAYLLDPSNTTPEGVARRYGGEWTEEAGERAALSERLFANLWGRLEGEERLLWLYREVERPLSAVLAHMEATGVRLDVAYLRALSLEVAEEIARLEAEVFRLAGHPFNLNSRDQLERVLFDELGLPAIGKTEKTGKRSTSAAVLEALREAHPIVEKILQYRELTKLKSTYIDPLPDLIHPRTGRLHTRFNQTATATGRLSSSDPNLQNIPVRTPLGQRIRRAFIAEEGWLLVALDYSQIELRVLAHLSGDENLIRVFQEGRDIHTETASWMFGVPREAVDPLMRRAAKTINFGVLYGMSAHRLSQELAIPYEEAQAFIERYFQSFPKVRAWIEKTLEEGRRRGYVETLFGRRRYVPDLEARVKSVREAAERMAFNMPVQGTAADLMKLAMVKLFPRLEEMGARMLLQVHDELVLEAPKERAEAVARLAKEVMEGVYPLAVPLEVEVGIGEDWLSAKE

`COc1ccc2ccc3c([nH]c4c5ccccc5nc(NCCCN(C)C)c34)c2c1`: the values for the IC50 in experiment [1] and in experiment [2] were 2200 nM and 1100 nM, respectively.
Taken in the same sequence, the figures for `COc1ccc2ccc3c([nH]c4c5ccccc5nc(NCCN(C)C)c34)c2c1` were over 10000 nM and 9800 nM.
Take `CN(C)CCCNc1nc2ccccc2c2[nH]c3c4cc([N+](=O)[O-])ccc4ccc3c12`: the IC50 – broadly, the concentration at which inhibition is half-maximal – in experiment [1] amounted to 5000 nM; in experiment [2], 500 nM.
For the compound `COc1ccc2c(ccc3c2[nH]c2c4ccccc4nc(NCCCN(C)C)c32)c1`, the IC50 in experiment [1] turned out to be 900 nM; in experiment [2], 1000 nM.
